These results are taken from PubChem BioAssay (NCI).

Test in all cases: NCI anticancer screen, dose series, 48 h
In assay [1] the test system is A498 renal.
Assay [2] has as its system A549 NSCLC.
Assay [3] has as its system ACHN renal.
In assay [4] the test system is M14 melanoma.
Assay [5] concerns NCI-H460 lung.
Assay [6] concerns OVCAR-4 ovarian.
Assay [7] has as its system PC-3 prostate.
Assay [8] deals with SF-268 CNS.
The test system of assay [9] is SN12C renal.
Assay [10] has as its system U251 CNS.

“And” between values parts separate entries of the source, which are not always exact repeats. Equal values may be shown once.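 Tested at 5 concentrations; 48 h exposure; 96-well plates; endpoints linearly interpolated, else capped at highest concentration. At the GI50, growth is halved. The concentration for full growth arrest is given as TGI.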 Where only a bound is given, the exact number is not on record here.

Take `COc1ccc(C(c2cc(OC)c(OC)c(OC)c2)n2ccnc2)cc1O` (stereo not given): the GI50 in assay [1] is 0.304 µM; in assay [2] it was 0.838 µM; in assay [3] it was 0.693 µM; in assay [4], 0.18 µM; in assay [5] it was 0.377 µM; in assay [6], 3.44 µM. Moreover, the GI50 in assay [7] is 0.384 µM; in assay [8], 0.731 µM; in assay [9], 0.91 µM; in [10], 0.391 µM. Also, the TGI was 0.941 µM in assay [1]; greater than 100 µM in assay [2]; greater than 100 µM in assay [3]; 0.646 µM in [4]; greater than 100 µM in [5]; greater than 100 µM in assay [6]. Also, the TGI in assay [7], in [8], in [9] and in [10] was greater than 100 µM each time.
As for `CN(c1ncccc1CNc1nc(Nc2ccc3c(c2)CC(=O)N3)ncc1C(F)(F)F)S(C)(=O)=O`, the GI50 in assay [1] is 2.81 µM; in [2], 2.56 µM and 2.92 µM; in assay [3], 2.72 µM and 3.31 µM; in assay [4] it was 1.87 µM and 2.91 µM; in assay [5], 2.14 µM and 2.95 µM; in assay [6], 2.1 µM and 3.56 µM. In addition, the GI50 in assay [7] was 2.83 µM and 3 µM; in assay [8], 2.33 µM and 2.65 µM; in assay [9], 2.88 µM and 2.95 µM; in assay [10], 2.17 µM and 2.76 µM. Moreover, the TGI in [1] is 7.14 µM; in [2], 12.2 µM and > 10 µM; in assay [3] it was greater than 100 µM; in assay [4], 5.49 µM and > 10 µM; in assay [5] it was 7.32 µM and > 10 µM; in assay [6], 11 µM and > 10 µM. Further, the TGI in assay [7] is greater than 35.9 µM; in assay [8] it was 13 µM and > 10 µM; in assay [9], greater than 100 µM; in assay [10], greater than 47.3 µM.
Regarding `O=S(=O)(NCCCNc1nccc(-c2c(-c3ccc(O)cc3)nc3sccn23)n1)c1ccc(F)cc1`, the GI50 was 1.55 µM in [1]; 2.64 µM in assay [2]; 2.09 µM in assay [3]; 0.064 µM in assay [4]; 2.37 µM in assay [5]; 3.36 µM in [6]. Moreover, the GI50 is 3.11 µM in assay [7], 2.94 µM in assay [8], 1.84 µM in [9] and 2.92 µM in assay [10]. Besides, the TGI was 5.16 µM in assay [1]; 20.3 µM in [2]; greater than 100 µM in assay [3]; 2.8 µM in assay [4]; 7.18 µM in assay [5]; 9.92 µM in assay [6]. Also, the TGI is 29 µM in [7], 14.7 µM in assay [8], greater than 100 µM in assay [9] and 12.4 µM in assay [10].
Turning to `CCN(CC)c1ccc(/C=N/NC(=O)CSc2nc3ccccc3c(=O)n2CCc2ccc(S(N)(=O)=O)cc2)c(O)c1`, the GI50 is greater than 100 µM in assay [1]; 3.1 µM in assay [2]; 1.75 µM in [3]; 0.754 µM in [4]; 0.595 µM in [5]; 0.549 µM in assay [6]. The GI50 in [7] is 1.83 µM; in assay [8], 2.05 µM; in [9], 1.86 µM; in [10] it was 1.44 µM. The TGI in assay [1] was greater than 100 µM; in assay [2], greater than 100 µM; in [3] it was greater than 100 µM; in [4] it was 7.2 µM; in assay [5], greater than 100 µM; in [6], greater than 100 µM. Also, the TGI in assay [7], in [8], in assay [9] and in [10] was greater than 100 µM each time.
Consider `COc1cc(C2Cc3ncccc3-c3[nH]c(=O)c4cccnc4c32)cc(OC)c1OC` (stereo not given), for which the GI50 was 0.363 µM in [1]; 0.825 µM in [2]; 0.669 µM in assay [3]; 0.405 µM in assay [4]; 0.429 µM in [5]; 1.12 µM in assay [6]. In addition, the GI50 in assay [7] was 0.513 µM; in assay [8], 0.67 µM; in assay [9] it was 1.19 µM; in assay [10], 0.524 µM. Moreover, the TGI was 13.5 µM in assay [1]; greater than 100 µM in assay [2]; greater than 100 µM in assay [3]; greater than 100 µM in assay [4]; greater than 100 µM in assay [5]; greater than 100 µM in assay [6]. Also, the TGI in assay [7] was greater than 100 µM; in assay [8], greater than 100 µM; in [9], greater than 100 µM; in assay [10], 38.2 µM.
In the case of `O=c1c2c(=NCCN3CCCC3)cc3c(=O)n(CCCN4CCOCC4)c(=O)c4c(-c5ccc(CN6CCCC6)cc5)cc(c(O)n1CCCN1CCOCC1)c2c4-3`, the GI50 in [1] was 0.0381 µM; in [2], 0.0288 µM; in assay [3], 0.0257 µM; in assay [4], 0.136 µM; in [5], 0.0247 µM; in assay [6], 0.0491 µM. Moreover, the GI50 in assay [7] was 0.0278 µM; in assay [8] it was 0.0781 µM; in assay [9], less than 0.0221 µM; in assay [10], 0.0412 µM. Besides, the TGI in assay [1] was determined as 0.155 µM; in assay [2], 1.39 µM; in assay [3], 0.783 µM; in assay [4], 0.641 µM; in assay [5], 0.245 µM; in [6], 0.23 µM. Also, the TGI in assay [7] amounted to 0.168 µM; in assay [8], 0.567 µM; in assay [9], 1.37 µM; in assay [10], 1.36 µM.
`Cc1nc([P+](c2ccccc2)(c2ccccc2)c2ccccc2)c(Sc2sc(-c3ccccc3)nc2[P+](c2ccccc2)(c2ccccc2)c2ccccc2)o1`: the GI50 in assay [1] was 1.5 µM; in assay [2], 1.87 µM; in assay [3], 1.65 µM; in assay [4], 1.21 µM; in assay [5], 1.13 µM; in assay [6], 0.952 µM. Also, the GI50 was 1.04 µM in assay [7], 2.02 µM in [8], 1.72 µM in assay [9] and 0.344 µM in assay [10]. Also, the TGI was determined as 4.68 µM in [1]; 10.7 µM in [2]; 4.92 µM in [3]; 5.3 µM in assay [4]; 2.8 µM in [5]; 5.82 µM in assay [6]. The TGI in [7] is 2.72 µM; in assay [8], 7.71 µM; in assay [9], 6.88 µM; in [10], 4.03 µM.
For the compound `O=C(Oc1cccc2cccnc12)c1cc2c(cc1Cl)SC(N(c1ccc(F)cc1)S(=O)(=O)c1ccc(Br)s1)=NS2(=O)=O`, the GI50 was 34.9 µM in assay [1]; 27.1 µM in assay [2]; 33.8 µM in assay [3]; 23.9 µM in assay [4]; 29.1 µM in assay [5]; 17.8 µM in assay [6]. The GI50 was 21.5 µM in assay [7], 35.7 µM in assay [8], 24.9 µM in assay [9] and 26 µM in [10]. Besides, the TGI in assay [1] was greater than 100 µM; in [2], greater than 100 µM; in assay [3], greater than 100 µM; in assay [4] it was greater than 100 µM; in assay [5], greater than 100 µM; in [6], 46.8 µM. The TGI in assay [7] is 73.9 µM; in [8], greater than 100 µM; in assay [9], greater than 100 µM; in assay [10] it was 95.6 µM.
`CCOC(=O)c1ccc(NC(=O)Nc2nncs2)cc1`: the GI50 in [1] is 0.23 µM; in assay [2], 0.41 µM; in assay [3], 1.24 µM; in assay [4], 0.104 µM; in assay [5] it was 0.379 µM; in [6] it was 0.916 µM. Moreover, the GI50 in assay [7] was 0.273 µM; in [8], 0.952 µM; in assay [9] it was 0.662 µM; in assay [10] it was 0.25 µM. Moreover, the TGI amounted to 0.978 µM in [1]; 26.1 µM in assay [2]; 23.9 µM in [3]; 3.02 µM in assay [4]; 14.1 µM in [5]; 21.5 µM in assay [6]. Moreover, the TGI in assay [7] came to 24.2 µM; in assay [8], 22.9 µM; in assay [9], 16.1 µM; in assay [10] it was 12.7 µM.
Consider `CC(=O)O[C@H]1C(=O)[C@@]2(C)C(C(OC(=O)c3ccccc3)[C@]3(O)C[C@H](OC(=O)C(OC(=O)CCCC(=O)NCCCN(C)C)C(NC(=O)c4ccccc4)c4ccccc4)C(C)=C1C3(C)C)C1(OC(C)=O)COC1C[C@@H]2O` (stereo not given in full), for which the TGI was 45.6 µM in assay [1]; greater than 85.3 µM in [2]; greater than 100 µM in assay [3]; 25 µM in [4]; 8.71 µM in [5]; greater than 87.9 µM in assay [6]. Also, the TGI in assay [7] was determined as 43 µM; in assay [8] it was 75.3 µM; in [9], 75.5 µM; in assay [10], 20.8 µM.
For the compound `NS(=O)(=O)c1ccc(Nc2cc(-c3cccc(O)c3)[nH]n2)cc1`, the GI50 is greater than 25 µM in assay [1]; greater than 25 µM in [2]; greater than 25 µM in assay [3]; greater than 25 µM in [4]; greater than 25 µM in assay [5]; 13.5 µM in [6]. The GI50 in assay [7] was greater than 25 µM; in [8] it was greater than 25 µM; in [9] it was greater than 25 µM; in assay [10], 24.4 µM. Besides, the TGI in [1], in [2], in [3], in [4], in assay [5] and in assay [6] was greater than 25 µM each time. Also, the TGI in assay [7], in [8], in [9] and in assay [10] was greater than 25 µM in each case.
Take `CC(C)c1[nH]nc(C(N)=O)c1N=NN(C)C`: the TGI in [1], in [2], in assay [3], in [4], in assay [5] and in [6] was greater than 100 µM throughout. The TGI in assay [7], in assay [8], in assay [9] and in assay [10] was greater than 100 µM throughout.
